Structures can show the parent of a compound that is named as a salt.
Tests used:
Type in all cases: biochemical
[1] = Pro-Drug DTNB assay with or without esterase; conditions: for Reduction Without Esterase / Reduction With Esterase: 22.5 μM prodrug, 100 μM DTNB; for Reduction Without Esterase: pH 7.5, no enzyme; for Reduction With Esterase: pH 7.5, porcine liver esterase
Experimental: The present invention provides a series of mucolytic pro-drugs (see R^6=other than H) that are activated by common enzymes that are present in the extracellular milieu (e.g., nucelotidases, phosphatases, and esterases). As a proof-of-concept, the reducing kinetics of the pro-drug compound 46 in the presence or absence of an activating esterase were tested.
This assay was designed to determine whether prodrug caps added on to our monothiol mucolytic compounds can be cleaved from the molecule. If so, the outcome would be an “active” compound that is able to reduce the S—S bond in DTNB. Similar to the activity concentration version of the DTNB assay described above, monothiol prodrugs were mixed at a final concentration of 22.5 μM with excess DTNB (100 μM final) in 1 mL 50 mM Tris-HCl buffer (pH 7.5) and maximum Abs412 was measured. In the absence of a purified hydrolytic enzyme (e.g. porcine liver esterase; Sigma), the amount of DTNB cleavage observed is an indicator for stability of the cap on the prodrug compound (i.e. if the prodrug remains intact in solution the Abs412=0). Next, 5 uL of esterase (bought as an ammonium sulfate suspension that is subsequently centrifuged to isolate the esterase and then dissolved in reaction buffer prior to assaying) is combined with excess DTNB (100 μM final) and 22.5 μM pro-drug in 1 mL 50 mM Tris-HCl buffer (pH 7.5). Cleavage of the prodrug cap can be visualized in real time via DTNB cleavage at Abs412 by the esterase-liberated monothiol molecule.

[2] = DTNB assay: rate of S-S bond reduction; conditions: pH 6; 22.5 μM reducing agent, 45 μM DTNB, 50 mM Tris-HCl
Description: Thiol-containing compounds, such as the monothiol mucolytic agents described in this patent, can react with DTNB (5,5-Dithiobis(2-nitrobenzoic acid)) resulting in the cleavage of its single S—S bond. The DTNB assay serves a dual purpose in our analysis of monothiol compounds, as it can (1) be used to determine the “active concentration” of the mucolytic compounds (what amount of the compound in a reaction is able to cleave S—S bonds) and (2) to assess the rate that the compound can cleave S—S bonds. When cleaved, the resulting compound, NTB (2-nitro-5-thiobenzoate), is a colored product that is measured spectrophotometrically at an absorbance of 412 nm (Abs412). Using the molar extinction coefficient of NTB and measured maximum Abs412, the molar amount of DTNB that reacted with our mucolytic agents can be calculated. Monothiol mucolytic compounds react at a 1:1 stoichiometric ratio with DTNB (i.e. 1 mole of NTB is produced when 1 mole of DTNB is reacted with 1 mole of a monothiol reducing agent). To define the activity concentration of a compound, a final concentration of 22.5 μM mucolytic reducing agent was combined with an excess of DTNB (100 μM) in 1 mL 50 mM Tris-HCl buffer (pH 7.5). Maximum Abs412 was measured and then utilized to calculate the activity concentration. If observed activity concentrations differed from expected activity concentrations by more than 5%, the amount of the compound added to each reaction was accordingly adjusted to kinetically test the reducing rate in the next step. To determine rate of mucolytic reducing activity, 22.5 μM active reducing agent is combined with 45 μM DTNB in 1 mL 50 mM Tris-HCl buffer over a pH range (6.0-7.5). Abs412 is recorded in real time upon addition of the compound and rates were calculated using 2nd order kinetic parameters.

Muc5B = target: T1, Muc5B (Homo sapiens, UniProt Q9HC84); assay: Mucin agarose gel western blot (saliva / mucus samples); conditions: for MUC5B reduction: human mucus samples
T1 construct: Various mucin-containing substrates (e.g. saliva, harvested HBE mucus, and disease sputum) treated with our monothiol mucolytic compounds; from tissue; host or cells: saliva; harvested HBE mucus; disease sputum
Experimental: Various mucin-containing substrates (e.g. saliva, harvested HBE mucus, and disease sputum) treated with our monothiol mucolytic compounds are quenched upon completion of the treatment period with a 10-fold excess of N-ethylmaleimide in order to alkylate any remaining active compound and to prevent further mucin reduction. A 10× concentrated sample loading buffer is diluted into each sample (1×TAE/5% glycerol/0.1% SDS/Bromophenol Blue). Samples ([…]) were analyzed by electrophoresis on 0.9% agarose gels using a buffer system consisting of 1×TAE/0.1% SDS. The agarose gel was soaked for 15 min in 4×SSC (0.6 M NaCl, 60 mM Tri-sodium citrate dehydrate) containing 10 mM DTT before transferring the samples from the gel onto a nitrocellulose membrane by vacuum blotter. Unreduced and reduced Muc5B were visualized on a LiCor Odyssey imaging detection system using a polyclonal antibody directed towards Muc5B.

Reduction Without Esterase [1] | Reduction With Esterase [1] | Compound | DTNB reduction rate [2] [M⁻¹ s⁻¹] | also measured
No | Yes | Cl.O=C(SCc1cccc(OCCN(C[C@H](O)[C@@H](O)[C@H](O)[C@H](O)CO)C[C@H](O)[C@@H](O)[C@H](O)[C@H](O)CO)c1)c1ccco1 [Compound 9, S-3-(2-(bis((2S,3R,4R,5R)-2,3,4,5,6-pentahydroxyhexyl)amino)ethoxy)benzyl furan-2-carbothioate Hydrochloride] | – | –
No | Yes | Cl.O=C(SCc1cccc(OCCN(C[C@@H](O)[C@@H](O)[C@H](O)[C@H](O)CO)C[C@@H](O)[C@@H](O)[C@H](O)[C@H](O)CO)c1)c1ccco1 [Compound 10, S-3-(2-(bis((2R,3R,4R,5R)-2,3,4,5,6-pentahydroxyhexyl)amino)ethoxy)benzylfuran-2-carbothioate Hydrochloride] | – | –
No | Yes | CC(C)C(=O)SCc1cccc(OCCN(C[C@H](O)[C@@H](O)[C@H](O)[C@H](O)CO)C[C@H](O)[C@@H](O)[C@H](O)[C@H](O)CO)c1 [Compound 14, S-3-(2-(bis((2S,3R,4R,5R)-2,3,4,5,6-entahydroxyhexyl)amino)ethoxy)benzyl 2-methylpropanethioate Hydrochloride] | – | –
No | Yes | CC(C)C(=O)SCc1cccc(OCCN(C[C@@H](O)[C@@H](O)[C@H](O)[C@H](O)CO)C[C@@H](O)[C@@H](O)[C@H](O)[C@H](O)CO)c1.Cl [Compound 15a, S-3-(2-(bis((2R,3R,4R,5R)-2,3,4,5,6-pentahydroxyhexyl)amino)ethoxy)benzyl 2-methylpropanethioate Hydrochloride] | – | –
No | Yes | CC(=O)SCc1cccc(OCCN(C[C@H](O)[C@@H](O)[C@H](O)[C@H](O)CO)C[C@H](O)[C@@H](O)[C@H](O)[C@H](O)CO)c1.Cl [Compound 17, S-3-(2-(bis((2S,3R,4R,5R)-2,3,4,5,6-pentahydroxyhexyl)amino)ethoxy)benzyl Ethanethioate Hydrochloride] | – | –
No | Yes | CC(=O)SCc1cccc(OCCN(C[C@@H](O)[C@@H](O)[C@H](O)[C@H](O)CO)C[C@@H](O)[C@@H](O)[C@H](O)[C@H](O)CO)c1 [Compound 18, S-3-(2-(bis((2R,3R,4R,5R)-2,3,4,5,6-pentahydroxyhexyl)amino)ethoxy)benzyl Ethanethioate] | – | –
– | – | Cl.OC[C@@H](O)[C@@H](O)[C@H](O)[C@@H](O)CN(CCOc1cccc(CS)c1)C[C@H](O)[C@@H](O)[C@H](O)[C@H](O)CO [Compound 19, (2R,2′R,3R,3′R,4R,4′R,5S,5′S)-6,6′-((2-(3-(mercaptomethyl)phenoxy)ethyl)azanediyl)bis(hexane-1,2,3,4,5-pentaol) Hydrochloride] | 182.52 | –
– | – | Cl.OC[C@@H](O)[C@@H](O)[C@H](O)[C@H](O)CN(CCOc1cccc(CS)c1)C[C@@H](O)[C@@H](O)[C@H](O)[C@H](O)CO [Compound 20, (2R,2′R,3R,3′R,4R,4′R,5R,5′R)-6,6′-((2-(3-(mercaptomethyl)phenoxy)ethyl)azanediyl)bis(hexane-1,2,3,4,5-pentaol) Hydrochloride] | 307.08 | –
No | Yes | CCC(=O)SCc1cccc(OCCN(C[C@H](O)[C@@H](O)[C@H](O)[C@H](O)CO)C[C@H](O)[C@@H](O)[C@H](O)[C@H](O)CO)c1.Cl [Compound 24, S-3-(2-(bis((2S,3R,4R,5R)-2,3,4,5,6-pentahydroxyhexyl)amino)ethoxy)benzyl Propanethioate Hydrochloride] | – | –
No | Yes | CCC(=O)SCc1cccc(OCCN(C[C@@H](O)[C@@H](O)[C@H](O)[C@H](O)CO)C[C@@H](O)[C@@H](O)[C@H](O)[C@H](O)CO)c1.Cl [Compound 25, S-3-(2-(bis((2R,3R,4R,5R)-2,3,4,5,6-pentahydroxyhexyl)amino)ethoxy)benzyl Propanethioate Hydrochloride] | – | –
No | Yes | CC(=O)SCc1ccc(OCCCCCCN(C[C@H](O)[C@@H](O)[C@H](O)[C@H](O)CO)C[C@H](O)[C@@H](O)[C@H](O)[C@H](O)CO)cc1.Cl [Compound 46, S-4-((6-(bis((2S,3R,4R,5R)-2,3,4,5,6-pentahydroxyhexyl)amino)hexyl)oxy)benzyl Ethanethioate Hydrochloride] | – | reduction of disulfide bonds by pro-drug alone ([1]; absence of activating esterase): does not reduce disulfide; reaction rates on addition of activating enzyme ([1]; presence of activating esterase): concentration dependent increase in reaction rates; MUC5B reduction (Muc5B): reduce MUC5B
– | – | Cl.OC[C@@H](O)[C@@H](O)[C@H](O)[C@@H](O)CN(CCCCCCOc1ccc(CS)cc1)C[C@H](O)[C@@H](O)[C@H](O)[C@H](O)CO [Compound 47, (2R,2′R,3R,3′R,4R,4′R,5S,5′S)-6,6′-((6-(4-(mercaptomethyl)phenoxy)hexyl)azanediyl)bis(hexane-1,2,3,4,5-pentaol) Hydrochloride] | 211.3 | time to fully reduce all available disulfides ([1]; parent molecule, same conditions as pro-drug test): < 10 s; reducing capacity relative to 76 (Muc5B) (Muc5B; FIG. 3): retain the reducing capacity of 76; MUC5B reduction (Muc5B): reduce MUC5B
– | – | NCCCCCCOc1ccc(CS)cc1 [Compound 48] | 190.8 | –
– | – | Cl.OC[C@@H](O)[C@@H](O)[C@H](O)[C@H](O)CN(CCOc1ccc(CS)cc1)C[C@@H](O)[C@@H](O)[C@H](O)[C@H](O)CO [Compound 58, (2R,2′R,3R,3′R,4R,4′R,5R,5′R)-6,6′-((2-(4-(mercaptomethyl)phenoxy)ethyl)azanediyl)bis(hexane-1,2,3,4,5-pentaol) Hydrochloride] | 258.31 | –
No | Yes | CC(C)C(=O)SCc1ccc(OCCN(C[C@@H](O)[C@@H](O)[C@H](O)[C@H](O)CO)C[C@@H](O)[C@@H](O)[C@H](O)[C@H](O)CO)cc1.Cl [Compound 59, S-4-(2-(bis((2R,3R,4R,5R)-2,3,4,5,6-pentahydroxyhexyl)amino)ethoxy)benzyl 2-methylpropanethioate Hydrochloride] | – | –
– | – | CO[C@@H]1OC(CS)[C@H](O)C(O)C1O (some centres unmarked) [compound 95, reference compound] | – | Muc5b reduction (Muc5B; FIG. 4, 30 mM): partial Muc5b reduction
